How the values were obtained:
L1210 = experiment: Antiproliferative activity against mouse L1210 cells assessed as inhibition of cell proliferation measured after 72 hrs by MTT assay; assay type: functional, cell-based; conditions: L1210, 72 h
HT-29 = experiment: Antiproliferative activity against human HT-29 cells assessed as inhibition of cell proliferation measured after 72 hrs by MTT assay; assay type: functional, cell-based; conditions: HT-29, 72 h
Huh-7 = experiment: Antiproliferative activity against human Huh-7 cells assessed as inhibition of cell proliferation measured after 72 hrs by MTT assay; assay type: functional, cell-based; conditions: Huh-7, 72 h
A549 = experiment: Antiproliferative activity against human A549 cells assessed as inhibition of cell proliferation measured after 72 hrs by MTT assay; assay type: functional, cell-based; conditions: A549, 72 h
Bel-7402 = experiment: Antiproliferative activity against human Bel-7402 cells assessed as inhibition of cell proliferation measured after 72 hrs by MTT assay; assay type: functional, cell-based; conditions: Bel-7402, 72 h
[1] = Cytotoxicity against human LO2 cells measured after 72 hrs by MTT assay; assay type: toxicity, cell-based, L02
T-24 [2] = experiment: Antiproliferative activity against human T24 cells assessed as inhibition of cell proliferation measured after 72 hrs by MTT assay; assay type: functional, cell-based; conditions: T-24, 72 h
[3] = Antiproliferative activity against […] MB49 cells assessed as inhibition of cell proliferation measured after 72 hrs by MTT assay; assay type: functional, cell-based; conditions: MB49, 72 h
HCT-116 = experiment: Antiproliferative activity against human HCT-116 cells assessed as inhibition of cell proliferation measured after 72 hrs by MTT assay; assay type: functional, cell-based; conditions: HCT-116, 72 h
T-24 [4] = experiment: Antiproliferative activity against human T24 cells assessed as inhibition of cell proliferation at 0.25 uM incubated for 72 to 120 hrs by MTT assay relative to control; assay type: functional; conditions: time 72-120 hrs

Compound	IC50 (L1210) [nM]	IC50 (HT-29) [nM]	IC50 (Huh-7) [nM]	IC50 (A549) [nM]	IC50 (Bel-7402) [nM]	IC50 at 72 h [1] [nM]	IC50 (T-24 [2]) [nM]	IC50 [3] [nM]	IC50 (HCT-116) [nM]	inhibition at 0.25 µM (T-24 [4]) [%]
C[C@H]1CCC/C=C/[C@@H]2C[C@H](O)C[C@H]2[C@H](O)/C=C/C(=O)O1 [BREFELDIN A]	1570	70	180	60	120	140	80	2160	100	–
C[C@H]1CCC/C=C/[C@@H]2C[C@H](OC(=O)c3cccnc3)C[C@H]2[C@H](O)/C=C/C(=O)O1	–	–	–	–	–	–	–	–	–	< 40
COc1cccc2c1C(=O)c1c(O)c3c(c(O)c1C2=O)C[C@@](O)(C(=O)CO)C[C@@H]3O[C@H]1C[C@H](N)[C@H](O)[C@H](C)O1 [DOXORUBICIN]	< 1000	420	620	440	–	–	250	> 1000	< 1000	–
C[C@H]1CCC/C=C/[C@@H]2C[C@H](OC(=O)c3cccnc3)C[C@H]2[C@H](OC(=O)c2cccnc2)/C=C/C(=O)O1	–	–	–	–	–	–	–	–	–	< 40
